In BindingDB's records for patent US12071420 (Hoffmann-La Roche, 2024):

Molecular target: Cannabinoid receptor 2 (Homo sapiens, UniProt P34972)
Test: Radioligand Binding Assay
Description: The affinity of the compounds of the invention for cannabinoid CB1 receptors was determined using recommended amounts of membrane preparations (PerkinElmer) of human embryonic kidney (HEK) cells expressing the human CNR1 or CNR2 receptors in conjunction with 1.5 or 2.6 nM [3H]-CP-55,940 (Perkin Elmer) as radioligand, respectively. Binding was performed in binding buffer (50 mM Tris, 5 mM MgCl2, 2.5 mM EDTA, and 0.5% (wt/vol) fatty acid free BSA, pH 7.4 for CB1 receptor and 50 mM Tris, 5 mM MgCl2, 2.5 mM EGTA, and 0.1% (wt/vol) fatty acid free BSA, pH 7.4 for CB2 receptor) in a total volume of 0.2 ml for 1 h at 30° C. shaking. The reaction was terminated by rapid filtration through microfiltration plates coated with 0.5% polyethylenimine (UniFilter GF/B filter plate; Packard). Bound radioactivity was analyzed for Ki using nonlinear regression analysis (Activity Base, ID Business Solution, Limited), with the Kd values for [3H]CP55,940 determined from saturation experiments. The compounds of formula (I) show an excellent affinity for the CB2 receptor.

Sequence of Cannabinoid receptor 2 (P34972 whole entry): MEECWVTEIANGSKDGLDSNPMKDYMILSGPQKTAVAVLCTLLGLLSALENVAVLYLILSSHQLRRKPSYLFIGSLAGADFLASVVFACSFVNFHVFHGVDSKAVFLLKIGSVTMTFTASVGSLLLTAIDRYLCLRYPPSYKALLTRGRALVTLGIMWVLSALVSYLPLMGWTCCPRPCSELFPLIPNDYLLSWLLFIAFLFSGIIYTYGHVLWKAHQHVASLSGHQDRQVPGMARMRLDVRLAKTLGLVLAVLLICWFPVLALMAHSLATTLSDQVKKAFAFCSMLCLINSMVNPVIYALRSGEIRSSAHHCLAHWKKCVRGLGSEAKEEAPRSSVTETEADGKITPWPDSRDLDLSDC

- Ki: 14 nM
SMILES: COC1CN(c2ccc(C(=O)N[C@H](COCF)CC(C)C)nc2OCC2CC2)C1 [US12071420, Example 25]
